Results: article PMC3626541, “A first in human, safety, pharmacokinetics, and clinical activity phase I study of once weekly administration of the Hsp90 inhibitor ganetespib (STA-9090) in patients with solid malignancies” (BMC Cancer, 2013)

Test system: patients with advanced solid tumors
Experiment: Safety: adverse events (NCI CTCAE v3.0), ECG
Format: in vivo, human
Method: Patients’ demographics and medical history were recorded at baseline. Physical examination and PS were assessed at baseline and on Day 1 of each cycle. Adverse events (AEs), vital signs, hematology and chemistry values, and creatinine clearance were assessed at baseline and weekly during treatment. Toxicity was graded using National Cancer Institute Common Terminology Criteria for Adverse Events (NCI CTCAE), version 3.0. An electrocardiogram (ECG) was performed at baseline, before and after treatment on Days 1 and 15 of Cycles 1 and 2, and on Day 15 of even-numbered cycles thereafter. CT scans were done at baseline and every 8 weeks thereafter. Tumor response was assessed using Response Evaluation Criteria in Solid Tumors (RECIST, v1.0), with confirmation of responses performed at least 4 weeks later.

CC(C)c1cc(-c2n[nH]c(=O)n2-c2ccc3c(ccn3C)c2)c(O)cc1O [Ganetespib, 5-[2,4-dihydroxy-5-(1 methyl-ethyl)phenyl]-2,4 dihydro-4-(1-methyl-1H indol-5 yl)-3H-1,2,4 triazole-3-one]
Any event, AE of any grade, Number (%) of patients (7-114 mg/m^2, n = 25): 25 (100) n (%)
Any event, CTCAE Grade 3 and 4 AE, Number (%) of patients (7-114 mg/m^2, n = 25): 17 (68) n (%)
Any event, serious adverse events, Number (%) of patients (7-114 mg/m^2, n = 25): 6 (24) n (%)
Arthralgia, CTCAE Grade 3 and 4 AE, Number (%) of patients (7-114 mg/m^2, n = 25): 1 (4) n (%)
Asthenia, AE of any grade, Number (%) of patients (7-114 mg/m^2, n = 25): 2 (8) n (%)
Asthenia, CTCAE Grade 3 and 4 AE, Number (%) of patients (7-114 mg/m^2, n = 25): 1 (4) n (%)
Asthenia, serious adverse events, Number (%) of patients (7-114 mg/m^2, n = 25): 0 n (%)
Back pain, AE of any grade, Number (%) of patients (7-114 mg/m^2, n = 25): 4 (16) n (%)
Constipation, AE of any grade, Number (%) of patients (7-114 mg/m^2, n = 25): 5 (20) n (%)
Decreased appetite, AE of any grade, Number (%) of patients (7-114 mg/m^2, n = 25): 2 (8) n (%)
Dehydration, AE of any grade, Number (%) of patients (7-114 mg/m^2, n = 25): 1 (4) n (%)
Dehydration, CTCAE Grade 3 and 4 AE, Number (%) of patients (7-114 mg/m^2, n = 25): 1 (4) n (%)
Dehydration, serious adverse events, Number (%) of patients (7-114 mg/m^2, n = 25): 0 n (%)
Diarrhea, CTCAE Grade 3 and 4 AE, Number (%) of patients (7-114 mg/m^2, n = 25): 1 (4) n (%)
Dizziness, AE of any grade, Number (%) of patients (7-114 mg/m^2, n = 25): 1 (4) n (%)
Dry mouth, AE of any grade, Number (%) of patients (7-114 mg/m^2, n = 25): 2 (8) n (%)
Dyspnea, AE of any grade, Number (%) of patients (7-114 mg/m^2, n = 25): 4 (16) n (%)
Extremity pain, AE of any grade, Number (%) of patients (7-114 mg/m^2, n = 25): 4 (16) n (%)
Fatigue, AE of any grade, Number (%) of patients (7-114 mg/m^2, n = 25): 12 (48) n (%)
Fatigue, CTCAE Grade 3 and 4 AE, Number (%) of patients (7-114 mg/m^2, n = 25): 1 (4) n (%)
Headache, AE of any grade, Number (%) of patients (7-114 mg/m^2, n = 25): 2 (8) n (%)
Hyperbilirubinemia, CTCAE Grade 3 and 4 AE, Number (%) of patients (7-114 mg/m^2, n = 25): 1 (4) n (%)
Hypokalemia, AE of any grade, Number (%) of patients (7-114 mg/m^2, n = 25): 2 (8) n (%)
Hypokalemia, CTCAE Grade 3 and 4 AE, Number (%) of patients (7-114 mg/m^2, n = 25): 0 n (%)
Hyponatremia, CTCAE Grade 3 and 4 AE, Number (%) of patients (7-114 mg/m^2, n = 25): 3 (12) n (%)
Hypophosphatemia, AE of any grade, Number (%) of patients (7-114 mg/m^2, n = 25): 5 (20) n (%)
Hypophosphatemia, CTCAE Grade 3 and 4 AE, Number (%) of patients (7-114 mg/m^2, n = 25): 2 (8) n (%)
Insomnia, AE of any grade, Number (%) of patients (7-114 mg/m^2, n = 25): 2 (8) n (%)
Musculoskeletal chest pain, AE of any grade, Number (%) of patients (7-114 mg/m^2, n = 25): 2 (8) n (%)
Nausea, AE of any grade, Number (%) of patients (7-114 mg/m^2, n = 25): 7 (28) n (%)
Peripheral edema, AE of any grade, Number (%) of patients (7-114 mg/m^2, n = 25): 3 (12) n (%)
Pneumonia, serious adverse events, Number (%) of patients (7-114 mg/m^2, n = 25): 0 n (%)
Rash, AE of any grade, Number (%) of patients (7-114 mg/m^2, n = 25): 4 (16) n (%)
Serum amylase elevated, CTCAE Grade 3 and 4 AE, Number (%) of patients (7-114 mg/m^2, n = 25): 1 (4) n (%)
Spinal cord compression, CTCAE Grade 3 and 4 AE, Number (%) of patients (7-114 mg/m^2, n = 25): 2 (8) n (%)
Urinary tract infection, AE of any grade, Number (%) of patients (7-114 mg/m^2, n = 25): 2 (8) n (%)
Vomiting, AE of any grade, Number (%) of patients (7-114 mg/m^2, n = 25): 4 (16) n (%)
Weight decreased, AE of any grade, Number (%) of patients (7-114 mg/m^2, n = 25): 1 (4) n (%)
ALT elevated, AE of any grade, Number (%) of patients (7-114 mg/m^2, n = 25, first of two ALT elevated lines): 5 (20) n (%)
ALT elevated, AE of any grade, Number (%) of patients (7-114 mg/m^2, n = 25, second of two ALT elevated lines): 3 (12) n (%)
Incidence of diarrhea (7–114 mg/m^2 dose levels): 80%
Incidence of fatigue (7–114 mg/m^2 dose levels): 48%
ALT elevation, CTCAE Grade 3 and 4 AE, Number (%) of patients (150-216 mg/m^2, n = 22): 1 (4.5) n (%)
AST elevated, AE of any grade, Number (%) of patients (150-216 mg/m^2, n = 22): 4 (18.2) n (%)
Abdominal distension, AE of any grade, Number (%) of patients (150-216 mg/m^2, n = 22): 3 (13.6) n (%)
Abdominal pain, AE of any grade, Number (%) of patients (150-216 mg/m^2, n = 22): 10 (45.5) n (%)
Abdominal pain, serious adverse events, Number (%) of patients (150-216 mg/m^2, n = 22): 1 (4.5) n (%)
Anemia, AE of any grade, Number (%) of patients (150-216 mg/m^2, n = 22): 5 (22.7) n (%)
Any event, AE of any grade, Number (%) of patients (150-216 mg/m^2, n = 22): 22 (100) n (%)
Any event, CTCAE Grade 3 and 4 AE, Number (%) of patients (150-216 mg/m^2, n = 22): 14 (63.6) n (%)
Any event, serious adverse events, Number (%) of patients (150-216 mg/m^2, n = 22): 6 (27.3) n (%)
Arthralgia, CTCAE Grade 3 and 4 AE, Number (%) of patients (150-216 mg/m^2, n = 22): 0 n (%)
Asthenia, AE of any grade, Number (%) of patients (150-216 mg/m^2, n = 22): 4 (18.2) n (%)
Asthenia, CTCAE Grade 3 and 4 AE, Number (%) of patients (150-216 mg/m^2, n = 22): 1 (4.5) n (%)
Asthenia, serious adverse events, Number (%) of patients (150-216 mg/m^2, n = 22): 1 (4.5) n (%)
Back pain, AE of any grade, Number (%) of patients (150-216 mg/m^2, n = 22): 2 (9.1) n (%)
